Structures are written as SMILES.

The target in this assay is T1, GSK-3β (AA 1-420) (Homo sapiens, UniProt P49841).
T1 construct: GSK-3β (AA 1-420)
T1 sequence (P49841 whole entry, the tested form may be a part): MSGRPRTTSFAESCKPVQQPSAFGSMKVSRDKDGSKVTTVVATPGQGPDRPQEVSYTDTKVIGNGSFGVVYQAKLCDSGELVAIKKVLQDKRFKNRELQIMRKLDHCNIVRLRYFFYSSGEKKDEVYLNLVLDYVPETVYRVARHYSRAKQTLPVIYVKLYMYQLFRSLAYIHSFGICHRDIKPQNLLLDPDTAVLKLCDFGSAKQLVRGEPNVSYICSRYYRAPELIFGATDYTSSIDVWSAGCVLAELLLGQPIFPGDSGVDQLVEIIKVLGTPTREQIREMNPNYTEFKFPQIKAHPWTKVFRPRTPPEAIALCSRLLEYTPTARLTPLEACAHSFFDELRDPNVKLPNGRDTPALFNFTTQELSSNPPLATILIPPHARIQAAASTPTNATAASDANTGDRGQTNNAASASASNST
The assay can be described thus: Ki determination for the inhibition of GSK-3 (coupled enzyme system). Format: biochemical. The following applies: 20 μM ATP, 300 μM peptide, 20 nM GSK-3β, 30° C. Here is the method:
Compounds were screened for their ability to inhibit GSK-3β (AA 1-420) activity using a standard coupled enzyme system (Fox et al. (1998) Protein Sci. 7, 2249). Reactions were carried out in a solution containing 100 mM HEPES (pH 7.5), 10 mM MgCl2, 25 mM NaCl, 300 μM NADH, 1 mM DTT and 1.5% DMSO. Final substrate concentrations in the assay were 20 μM ATP (Sigma Chemicals, St Louis, Mo.) and 300 μM peptide (HSSPHQS(PO3H2)EDEEE, American Peptide, Sunnyvale, Calif.). Reactions were carried out at 30° C. and 20 nM GSK-3β. Final concentrations of the components of the coupled enzyme system were 2.5 mM phosphoenolpyruvate, 300 μM NADH, 30 μg/ml pyruvate kinase and 10 μg/ml lactate dehydrogenase.
An assay stock buffer solution was prepared containing all of the reagents listed above with the exception of ATP and the test compound of interest. The assay stock buffer solution (175 μl) was incubated in a 96 well plate with 5 μl of the test compound of interest at final concentrations spanning 0.002 μM to 30 μM at 30° C. for 10 min. Typically, a 12 point titration was conducted by preparing serial dilutions (from 10 mM compound stocks) with DMSO of the test compounds in daughter plates. The reaction was initiated by the addition of 20 μl of ATP (final concentration 20 μM). Rates of reaction were obtained using a Molecular Devices Spectramax plate reader (Sunnyvale, Calif.) over 10 min at 30° C. The Ki values were determined from the rate data as a function of inhibitor concentration.
With `Fc1cc(F)c2[nH]nc(Nc3nc(-c4ccccc4C(F)(F)F)cc4ccccc34)c2c1` [Compound V-3, (5,7-Difluoro-1H-indazol-3-yl)-[3-(2-trifluoromethyl-phenyl)-isoquinolin-1-yl]-amine], the Ki was less than 100 nM.

Turning to `FC(F)(F)c1ccccc1-c1cc(Nc2n[nH]c3ccccc23)c2ccccc2n1` [Compound V-7, (1H-Indazol-3-yl)-[2-(2-trifluoromethyl-phenyl)-quinolin-4-yl]-amine], the Ki lay within 100 to 1000 nM.

In the case of `Fc1cc(F)c2[nH]nc(Nc3cc(-c4ccccc4C(F)(F)F)nc4ccccc34)c2c1` [Compound V-8, (5,7-Difluoro-1H-indazol-3-yl)-[2-(2-trifluoromethyl-phenyl)-quinolin-4-yl]-amine], the Ki was 1000 to 20000 nM.

In the case of `Clc1ccccc1-c1nc2c(c(Nc3n[nH]c4ccccc34)n1)CCCCC2` [II-2, [2-(2-Chloro-phenyl)-6,7,8,9-tetrahydro-5H-cycloheptapyrimidin-4-yl]-(1H-indazol-3-yl)-amine], the Ki was less than 100 nM.

On to `Fc1ccc2[nH]nc(Nc3nc(-c4ccccc4C(F)(F)F)nc4c3CCNC4)c2c1` [II-3, (5-Fluoro-1H-indazol-3-yl)-[2-(2-trifluoromethyl-phenyl)-5,6,7,8-tetrahydro-pyrido[3,4-d]pyrimidin-4-yl]-amine], for which the Ki was less than 100 nM.

Take `Fc1cccc2c(Nc3nc(-c4ccccc4Cl)nc4c3CCCCC4)n[nH]c12` [II-4, [2-(2-Chloro-phenyl)-6,7,8,9-tetrahydro-5H-cycloheptapyrimidin-4-yl]-(7-fluoro-1H-indazol-3-yl)-amine]: the Ki is less than 100 nM.

`Fc1ccc2[nH]nc(Nc3nc(-c4ccccc4Cl)nc4c3CCCCC4)c2c1` [II-5, [2-(2-Chloro-phenyl)-6,7,8,9-tetrahydro-5H-cycloheptapyrimidin-4-yl]-(5-fluoro-1H-indazol-3-yl)-amine] had a Ki of less than 100 nM.

Turning to `Fc1cc(F)c2[nH]nc(Nc3nc(-c4ccccc4Cl)nc4c3CCCCC4)c2c1` [II-6, [2-(2-Chloro-phenyl)-6,7,8,9-tetrahydro-5H-cycloheptapyrimidin-4-yl]-(5,7-difluoro-1H-indazol-3-yl)-amine], the Ki was less than 100 nM.

`Fc1cccc2c(Nc3nc(-c4ccccc4C(F)(F)F)nc4c3CCCC4)n[nH]c12` [II-7, (7-Fluoro-1H-indazol-3-yl)-[2-(2-trifluoromethyl-phenyl)-5,6,7,8-tetrahydroquinazolin-4-yl]-amine]: the Ki is less than 100 nM.

Consider `Fc1ccc2[nH]nc(Nc3nc(-c4ccccc4C(F)(F)F)nc4c3CCCC4)c2c1` [II-8, (5-Fluoro-1H-indazol-3-yl)-[2-(2-trifluoromethyl-phenyl)-5,6,7,8-tetrahydroquinazolin-4-yl]-amine], for which the Ki is less than 100 nM.

Compound `Fc1cc(F)c2[nH]nc(Nc3nc(-c4ccccc4C(F)(F)F)nc4c3CCCC4)c2c1` [II-9, (5,7-Difluoro-1H-indazol-3-yl)-[2-(2-trifluoromethyl-phenyl)-5,6,7,8-tetrahydroquinazolin-4-yl]-amine] yielded a Ki of less than 100 nM.

Regarding `Fc1cc(F)c2[nH]nc(Nc3nc(-c4ccccc4C(F)(F)F)nc4c3CCCCC4)c2c1` [II-11, (5,7-difluoro-1H-indazol-3-yl)-[2-(2-trifluoromethyl-phenyl)-6,7,8,9-tetrahydro-5H-cycloheptapyrimidin-4-yl]-amine], the Ki was less than 100 nM.

Regarding `Fc1ccc2[nH]nc(Nc3nc(-c4ccccc4C(F)(F)F)nc4c3CN(Cc3ccccc3)CC4)c2c1` [II-12, (6-Benzyl-2-(2-trifluoromethyl-phenyl)-5,6,7,8-tetrahydro-pyrido[4,3-d]pyrimidin-4-yl)-(5-fluoro-1H-indazol-3-yl)-amine], the Ki is less than 100 nM.

The compound `FC(F)(F)c1ccccc1-c1nc2c(c(Nc3n[nH]c4ccccc34)n1)CCCCC2` [II-13, (1H-Indazol-3-yl)-[2-(2-trifluoromethyl-phenyl)-6,7,8,9-tetrahydro-5H-cycloheptapyrimidin-4-yl]-amine] came in with an inhibition constant Ki of less than 100 nM.

Compound `Fc1cccc2c(Nc3nc(-c4ccccc4C(F)(F)F)nc4c3CCCCC4)n[nH]c12` [II-14, (7-Fluoro-1H-indazol-3-yl)-[2-(2-trifluoromethyl-phenyl)-6,7,8,9-tetrahydro-5H-cycloheptapyrimidin-4-yl]-amine] returned a Ki of less than 100 nM.

`Fc1ccc2[nH]nc(Nc3nc(-c4ccccc4C(F)(F)F)nc4c3CCCCC4)c2c1` [II-15, (5-Fluoro-1H-indazol-3-yl)-[2-(2-trifluoromethyl-phenyl)-6,7,8,9-tetrahydro-5H-cycloheptapyrimidin-4-yl]-amine] returned a Ki of less than 100 nM.

Compound `Fc1ccc2[nH]nc(Nc3nc(-c4ccccc4C(F)(F)F)nc4c3CNCC4)c2c1` [II-16, (5-Fluoro-1H-indazol-3-yl)-[2-(2-trifluoromethyl-phenyl)-5,6,7,8-tetrahydro-pyrido[4,3-d]pyrimidin-4-yl]-amine] returned a Ki of less than 100 nM.

`FC(F)(F)c1ccccc1-c1nc2c(c(Nc3n[nH]c4ccccc34)n1)CCCC2` [II-17, (1H-indazol-3-yl)-[2-(2-trifluoromethyl-phenyl)-5,6,7,8-tetrahydroquinazolin-4-yl]-amine] registered a Ki of less than 100 nM.

For the compound `Fc1ccc2[nH]nc(Nc3nc(-c4ccccc4C(F)(F)F)nc4c3CCN(Cc3ccccc3)C4)c2c1` [II-18], the Ki was less than 100 nM.

`FC(F)(F)c1ccccc1-c1nc(Nc2n[nH]c3ccccc23)cc(-c2ccccn2)n1` [II-22, (1H-Indazol-3-yl)-[6-(pyridin-2-yl)-2-(2-trifluoromethyl-phenyl)-pyrimidin-4-yl]-amine] returned a Ki of 100 to 1000 nM.

`FC(F)(F)c1ccccc1-c1nc(Nc2n[nH]c3ccccc23)cc(-c2ccccc2Cl)n1` [II-23, [6-(2-Chlorophenyl)-2-(2-trifluoromethyl-phenyl)-pyrimidin-4-yl]-(1H-indazol-3-yl)-amine] returned an inhibition constant (Ki) of less than 100 nM.

In turn, `Cc1nc(-c2ccccc2Cl)nc(Nc2n[nH]c3ccccc23)c1C` [II-26, [2-(2-Chlorophenyl)-5,6-dimethyl-pyrimidin-4-yl]-(1H-indazol-3-yl)-amine] gave a Ki of less than 100 nM.

In the case of `Cc1nc(-c2ccccc2C(F)(F)F)nc(Nc2n[nH]c3c(F)cccc23)c1C` [II-27, [5,6-Dimethyl-2-(2-trifluoromethyl-phenyl)-pyrimidin-4-yl]-(7-fluoro-1H-indazol-3-yl)-amine], the Ki was less than 100 nM.

In turn, `Cc1nc(-c2ccccc2C(F)(F)F)nc(Nc2n[nH]c3c(F)cc(F)cc23)c1C` [II-28, (5,7-Difluoro-1H-indazol-3-yl)-[5,6-Dimethyl-2-(2-trifluoromethyl-phenyl)-pyrimidin-4-yl]-amine] showed a Ki of less than 100 nM.

Compound `Cc1nc(-c2ccccc2Cl)nc(Nc2n[nH]c3c(F)cc(F)cc23)c1C` [II-29, [2-(2-Chlorophenyl)-5,6-dimethyl-pyrimidin-4-yl]-(5,7-difluoro-1H-indazol-3-yl)-amine] came in with a Ki of less than 100 nM.

The compound `Cc1nc(-c2ccccc2Cl)nc(Nc2n[nH]c3c(F)cccc23)c1C` [II-30, [2-(2-Chlorophenyl)-5,6-dimethyl-pyrimidin-4-yl]-(7-fluoro-1H-indazol-3-yl)-amine] yielded a Ki of less than 100 nM.

Compound `Cc1nc(-c2ccccc2Cl)nc(Nc2n[nH]c3ccc(F)cc23)c1C` [II-31, [2-(2-Chlorophenyl)-5,6-dimethyl-pyrimidin-4-yl]-(5-fluoro-1H-indazol-3-yl)-amine] returned a Ki of less than 100 nM.

`Cc1nc(-c2ccc(Cl)cc2Cl)nc(Nc2n[nH]c3ccccc23)c1C` [II-32, [2-(2,4-Dichlorophenyl)-5,6-dimethyl-pyrimidin-4-yl]-(1H-indazol-3-yl)-amine] came in with an inhibitory constant (Ki) of 100 to 1000 nM.

For the compound `Cc1cc(Nc2nc(-c3ccccc3-c3ccccc3)nc3ccccc23)n[nH]1` [II-43, (2-Biphenyl-2-yl-quinazolin-4-yl)-(5-methyl-2H-pyrazol-3-yl)-amine], the Ki was in the range of 1000 to 20000 nM.

`Cc1cc(Nc2nc(-c3ccccc3O)nc3ccccc23)n[nH]1` [II-44, [2-(2-Hydroxyphenyl)-quinazolin-4-yl]-(5-Methyl-2H-pyrazol-3-yl)-amine] registered a Ki of 100 to 1000 nM.

For the compound `CCOc1ccccc1-c1nc(Nc2cc(C)[nH]n2)c2ccccc2n1` [II-45, [2-(2-Ethoxyphenyl)-quinazolin-4-yl]-(5-Methyl-2H-pyrazol-3-yl)-amine], the Ki fell in the range of 100 to 1000 nM.

The compound `FC(F)(F)c1ccccc1-c1nc(Nc2cc(-c3cccs3)[nH]n2)c2ccccc2n1` [II-46, [5-(Thiophen-2-yl)-2H-pyrazol-3-yl]-[2-(2-trifluoromethylphenyl)-quinazolin-4-yl]-amine] showed a Ki of less than 100 nM.

`FC(F)(F)c1ccccc1-c1nc(Nc2n[nH]cc2-c2cccs2)c2ccccc2n1` [II-47, [4-(Thiophen-2-yl)-2H-pyrazol-3-yl]-[2-(2-trifluoromethylphenyl)-quinazolin-4-yl]-amine] had an inhibitory constant (Ki) of 1000 to 20000 nM.

On to `FC(F)(F)c1ccccc1-c1nc(Nc2n[nH]cc2-c2ccccc2)c2ccccc2n1` [II-48, (4-Phenyl-2H-pyrazol-3-yl)-[2-(2-trifluoromethylphenyl)-quinazolin-4-yl]-amine], for which the Ki lay in the range of 1000 to 20000 nM.

(Values after patent publication US6610677B2, “Pyrazole compounds useful as protein kinase inhibitors” (Vertex Pharmaceuticals Incorporated, priority 2000, dated 2003).)
